Laboratory results published in patent publication US9096640B2, “17-hydroxy-17-pentafluoroethyl-estra-4,9(10)-diene-11-methylene oxyalkylene aryl derivatives, process for preparation thereof, and use thereof for treatment of diseases” (Bayer Intellectual Property, priority 2009, dated 2015).
Blank lines part the entries; values can stand above or below the molecule they belong to.

Experiments:
[1] = target: T1, human progesterone receptor A (Homo sapiens, UniProt P06401); test: Progesterone receptor transactivation test in stably transfected SK-N-MC cells (PR-A, MMTV-LUC reporter); assay type: cell-based; details: 24 hours, in presence of 0.1 nmol/l promegestone, luciferase reporter, read-out: PR-A IC50 (antagonistic potency)
T1 construct: expressed in transfected cells; host or cells: SK-N-MC human neuroblastoma cells, stably transfected with pRChPR-A-neo and pMMTV-LUC
T1 sequence (P06401 1-769 isoform P06401-2): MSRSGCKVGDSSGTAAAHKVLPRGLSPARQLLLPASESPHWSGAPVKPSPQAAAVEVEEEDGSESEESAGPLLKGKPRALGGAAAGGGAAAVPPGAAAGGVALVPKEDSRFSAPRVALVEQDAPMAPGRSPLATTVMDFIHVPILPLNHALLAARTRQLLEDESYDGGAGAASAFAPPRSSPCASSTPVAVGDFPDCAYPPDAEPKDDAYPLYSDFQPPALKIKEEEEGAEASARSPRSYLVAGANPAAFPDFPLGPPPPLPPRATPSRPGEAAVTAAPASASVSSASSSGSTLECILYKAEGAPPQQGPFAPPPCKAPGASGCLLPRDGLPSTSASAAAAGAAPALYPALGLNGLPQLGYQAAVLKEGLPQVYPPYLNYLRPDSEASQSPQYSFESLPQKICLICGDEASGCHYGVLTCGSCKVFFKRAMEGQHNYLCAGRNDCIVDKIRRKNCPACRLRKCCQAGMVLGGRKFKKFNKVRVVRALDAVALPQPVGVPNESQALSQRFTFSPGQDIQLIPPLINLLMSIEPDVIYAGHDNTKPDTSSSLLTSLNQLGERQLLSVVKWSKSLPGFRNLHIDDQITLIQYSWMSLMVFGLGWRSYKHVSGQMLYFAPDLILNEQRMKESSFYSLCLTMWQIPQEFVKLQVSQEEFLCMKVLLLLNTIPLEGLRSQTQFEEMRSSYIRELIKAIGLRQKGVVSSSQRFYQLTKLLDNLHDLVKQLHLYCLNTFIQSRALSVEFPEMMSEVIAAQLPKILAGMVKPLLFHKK
Description: (§1) Progesterone Receptor-Antagonistic Action in Stable Transfectants of Human Neuroblastoma Cells (SK-N-MC Cells) with the Human Progesterone A or Progesterone B Receptor and an MN-LUC Reporter Construct
(§2) SK-N-MC cells (human neuroblastoma cells) which have been stably transfected with plasmids expressing the human progesterone receptor B (pRChPR-B-neo) or the human progesterone receptor A (pRChPR-A-neo) and a reporter construct (pMMTV-LUC) were incubated for 24 hours either in the absence (negative control) or in the presence of ascending amounts of the particular test compound (0.01 nmol/l, 0.1 nmol/l, 1 nmol/l, 10 nmol/l, 100 nmol/l and […]), in order to determine the agonistic efficacy. As a positive control of the reporter gene induction, the cells were treated with the synthetic gestagen promegestone (0.01 nmol/l, 0.1 nmol/l, 1 nmol/l, 10 nmol/l, 100 nmol/l and […]). To determine the antagonistic activity, the cells were treated with 0.1 nmol/l promegestone and additionally with ascending amounts of the particular test compound (0.01 nmol/l, 0.1 nmol/l, 1 nmol/l, 10 nmol/l, 100 nmol/l and […]). The activity of the reporter gene LUC (LUC=luciferase) was determined in the cell lysates and measured as RLU (relative light units). All measurements are reported as % efficacy and as […] and […] concentrations.

[2] = target: T2, human progesterone receptor B (Homo sapiens, UniProt P06401); test: Progesterone receptor transactivation test in stably transfected SK-N-MC cells (PR-B, MMTV-LUC reporter); assay type: cell-based; details: 24 hours, in presence of 0.1 nmol/l promegestone, luciferase reporter, read-out: PR-B IC50 (antagonistic potency)
T2 construct: expressed in transfected cells; host or cells: SK-N-MC human neuroblastoma cells, stably transfected with pRChPR-B-neo and pMMTV-LUC
T2 sequence (P06401 1-933): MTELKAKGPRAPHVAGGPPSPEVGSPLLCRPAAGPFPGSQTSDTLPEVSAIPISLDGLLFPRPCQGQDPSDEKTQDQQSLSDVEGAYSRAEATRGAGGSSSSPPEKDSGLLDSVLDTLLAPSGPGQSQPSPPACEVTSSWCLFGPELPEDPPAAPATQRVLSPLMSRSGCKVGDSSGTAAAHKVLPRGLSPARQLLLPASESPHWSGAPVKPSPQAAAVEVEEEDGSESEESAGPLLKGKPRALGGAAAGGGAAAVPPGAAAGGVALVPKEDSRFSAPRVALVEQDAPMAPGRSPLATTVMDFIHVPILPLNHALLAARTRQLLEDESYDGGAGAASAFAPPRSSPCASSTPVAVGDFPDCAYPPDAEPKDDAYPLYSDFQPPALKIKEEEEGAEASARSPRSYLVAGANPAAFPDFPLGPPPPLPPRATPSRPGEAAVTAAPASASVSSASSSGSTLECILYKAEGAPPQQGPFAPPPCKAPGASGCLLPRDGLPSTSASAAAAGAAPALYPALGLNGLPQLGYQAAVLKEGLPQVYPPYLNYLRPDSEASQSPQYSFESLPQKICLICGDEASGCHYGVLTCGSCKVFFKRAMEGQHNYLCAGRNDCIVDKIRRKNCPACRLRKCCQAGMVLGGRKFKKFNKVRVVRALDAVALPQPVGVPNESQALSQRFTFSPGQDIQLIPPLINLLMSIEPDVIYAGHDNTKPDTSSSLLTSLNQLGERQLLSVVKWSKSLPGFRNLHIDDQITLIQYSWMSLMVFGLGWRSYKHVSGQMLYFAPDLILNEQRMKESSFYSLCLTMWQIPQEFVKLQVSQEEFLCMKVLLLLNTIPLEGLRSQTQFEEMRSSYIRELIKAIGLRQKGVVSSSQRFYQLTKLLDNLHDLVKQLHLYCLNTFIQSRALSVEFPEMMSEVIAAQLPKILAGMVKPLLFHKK
Description: as §1, §2

SMILES: COC(C)c1ccc(C2C[C@@]3(C)C(CC[C@@]3(O)C(F)(F)C(F)(F)F)C3CCC4=CC(=O)CCC4=C23)cc1 (mixture of isomers) [Example 1B, (8S,11R,13S,14S,17S)-17-hydroxy-11-[4-((1RS)-1-methoxyethyl)phenyl]-13-methyl-17-pentafluoroethyl-1,2,6,7,8,11,12,13,14,15,16,17-dodecahydrocyclopenta[a]phenanthren-3-one]
IC50 [1]: 0.1 nM
IC50 [2]: 0.1 nM

SMILES: C[C@]12C[C@H](c3ccc(CCOCC(=O)O)cc3)C3=C4CCC(=O)C=C4CC[C@H]3[C@@H]1CC[C@@]2(O)C(F)(F)C(F)(F)F [Example 6, {2-[4-((8S,11R,13S,14S,17S)-17-hydroxy-13-methyl-3-oxo-17-pentafluoroethyl-2,3,6,7,8,11,12,13,14,15,16,17-dodecahydro-1H-cyclopenta[a]phenanthren-11-yl)-phenyl]ethoxy}acetic acid]
IC50 [1]: 3 nM
IC50 [2]: 12 nM

SMILES: Cc1nc2cc(COC(C)c3ccc(C4C[C@@]5(C)C(CC[C@@]5(O)C(F)(F)C(F)(F)F)C5CCC6=CC(=O)CCC6=C45)cc3)ccc2s1 (mixture of isomers) [Example 8, (8S,11R,13S,14S,17S)-17-hydroxy-13-methyl-11-{4-[(RS)-1-(2-methylbenzothiazol-5-ylmethoxy)ethyl]phenyl}-17-pentafluoroethyl-1,2,6,7,8,11,12,13,14,15,16,17-dodecahydro-cyclopenta[a]phenanthren-3-one]
IC50 [1]: 0.06 nM
IC50 [2]: 0.1 nM

SMILES: CC(OCC(=O)O)c1ccc([C@H]2C[C@@]3(C)C(CC[C@@]3(O)C(F)(F)C(F)(F)F)C3CCC4=CC(=O)CCC4=C32)cc1 (mixture of isomers) [Example 3, {(RS)-1-[4-((8S,11R,13S,14S,17S)-17-hydroxy-13-methyl-3-oxo-17-pentafluoroethyl-2,3,6,7,8,11,12,13,14,15,16,17-dodecahydro-1H-cyclopenta[a]phenanthren-11-yl)phenyl]ethoxy}acetic acid]
IC50 [1]: 13 nM
IC50 [2]: 9.8 nM

SMILES: CC(OCCO)c1ccc(C2C[C@@]3(C)C(CC[C@@]3(O)C(F)(F)C(F)(F)F)C3CCC4=CC(=O)CCC4=C23)cc1 (mixture of isomers) [Example 1A, (8S,11R,13S,14S,17S)-17-hydroxy-11-{4-[(1RS)-1-(2-hydroxyethoxy)ethyl]phenyl}-13-methyl-17-pentafluoroethyl-1,2,6,7,8,11,12,13,14,15,16,17-dodecahydro-cyclopenta[a]phenanthren-3-one]
IC50 [1]: 0.12 nM
IC50 [2]: 0.36 nM

SMILES: CC(OCC(=O)OC(C)(C)C)c1ccc([C@H]2C[C@@]3(C)C(CC[C@@]3(O)C(F)(F)C(F)(F)F)C3CCC4=CC(=O)CCC4=C32)cc1 (mixture of isomers) [Example 2, {(1RS)-1-[4-((8S,11R,13S,14S,17S)-17-hydroxy-13-methyl-3-oxo-17-pentafluoroethyl-2,3,6,7,8,11,12,13,14,15,16,17-dodecahydro-1H-cyclopenta[a]phenanthren-11-yl)phenyl]ethoxy}acetic acid tert-butyl ester]
IC50 [1]: 0.1 nM
IC50 [2]: 0.12 nM

More lines, in order of falling IC50 [1], values ahead:

IC50 [1]: 0.1 nM
IC50 [2]: 0.1 nM
SMILES: C[C@]12C[C@H](c3ccc(CCOCCO)cc3)C3=C4CCC(=O)C=C4CC[C@H]3[C@@H]1CC[C@@]2(O)C(F)(F)C(F)(F)F [Example 7, (8S,11R,13S,14S,17S)-17-hydroxy-11-{4-[2-(2-hydroxyethoxy)ethyl]phenyl}-13-methyl-17-pentafluoroethyl-1,2,6,7,8,11,12,13,14,15,16,17-dodecahydro-cyclopenta[a]phenanthren-3-one]

IC50 [1]: 0.1 nM
IC50 [2]: 0.1 nM
SMILES: CC(OCC#N)c1ccc([C@H]2C[C@@]3(C)C(CC[C@@]3(O)C(F)(F)C(F)(F)F)C3CCC4=CC(=O)CCC4=C32)cc1 (mixture of isomers) [Example 5, {(RS)-1-[4-((8S,11R,13S,14S,17S)-17-hydroxy-13-methyl-3-oxo-17-pentafluoroethyl-2,3,6,7,8,11,12,13,14,15,16,17-dodecahydro-1H-cyclopenta[a]phenanthren-11-yl)phenyl]ethoxy}acetonitrile]

IC50 [1]: 0.1 nM
IC50 [2]: 0.1 nM
SMILES: CC(C)(C)OC(=O)COCCc1ccc([C@H]2C[C@@]3(C)[C@@H](CC[C@@]3(O)C(F)(F)C(F)(F)F)[C@@H]3CCC4=CC(=O)CCC4=C32)cc1 [Example 4, {2-[4-((8S,11R,13S,14S,17S)-17-hydroxy-13-methyl-3-oxo-17-pentafluoroethyl-2,3,6,7,8,11,12,13,14,15,16,17-dodecahydro-1H-cyclopenta[a]phenanthren-11-yl)-phenyl]ethoxy}acetic acid tert-butyl ester]
